The supplement of paper PMC13380429

What was measured:
Settings in all cases: 72 h
Caco-2 [1] = test: cell viability relative to DMSO; higher = less toxic
HepG2 [2] = test: as above
U2OS [3] = test: as above
Vero E6 [4] = test: as above
Caco-2 [5] = test: relative viability EC50 (midpoint between 100% and the lowest measured viability); higher = less toxic
HepG2 [6] = test: as above
U2OS [7] = test: as above
Vero E6 [8] = test: as above
Caco-2 [9] = test: drug sensitivity score (DSS) for viability; higher = more toxic; extreme values may be limits of the assay
HepG2 [10] = test: as above
U2OS [11] = test: as above
Vero E6 [12] = test: as above
Calu-3 [13] = test: cell viability relative to DMSO; higher = less toxic
Calu-3 [14] = test: relative viability EC50 (midpoint between 100% and the lowest measured viability); higher = less toxic
Calu-3 [15] = test: drug sensitivity score (DSS) for viability; higher = more toxic; extreme values may be limits of the assay

Row | SMILES | cell viability (Caco-2 [1]; 1 nM) [%] | cell viability (Caco-2 [1]; 10 nM) [%] | cell viability (Caco-2 [1]; 100 nM) [%] | cell viability (Caco-2 [1]; 1000 nM) [%] | cell viability (Caco-2 [1]; 10000 nM) [%] | cell viability (HepG2 [2]; 1 nM) [%] | cell viability (HepG2 [2]; 10 nM) [%] | cell viability (HepG2 [2]; 100 nM) [%] | cell viability (HepG2 [2]; 1000 nM) [%] | cell viability (HepG2 [2]; 10000 nM) [%] | cell viability (U2OS [3]; 1 nM) [%] | cell viability (U2OS [3]; 10 nM) [%] | cell viability (U2OS [3]; 100 nM) [%] | cell viability (U2OS [3]; 1000 nM) [%] | cell viability (U2OS [3]; 10000 nM) [%] | cell viability (Vero E6 [4]; 1 nM) [%] | cell viability (Vero E6 [4]; 10 nM) [%] | cell viability (Vero E6 [4]; 100 nM) [%] | cell viability (Vero E6 [4]; 1000 nM) [%] | cell viability (Vero E6 [4]; 10000 nM) [%] | relative viability EC50 (Caco-2 [5]) [µM] | relative viability EC50 (HepG2 [6]) [µM] | relative viability EC50 (U2OS [7]) [µM] | relative viability EC50 (Vero E6 [8]) [µM] | drug sensitivity score (Caco-2 [9]) | drug sensitivity score (HepG2 [10]) | drug sensitivity score (U2OS [11]) | drug sensitivity score (Vero E6 [12]) | cell viability (Calu-3 [13]; 1 nM) [%] | cell viability (Calu-3 [13]; 10 nM) [%] | cell viability (Calu-3 [13]; 100 nM) [%] | cell viability (Calu-3 [13]; 1000 nM) [%] | cell viability (Calu-3 [13]; 10000 nM) [%] | relative viability EC50 (Calu-3 [14]) [µM] | drug sensitivity score (Calu-3 [15])
1 | COc1ccc(S(=O)(=O)N2CCC[C@H]2C(=O)Nc2cc(C)cc(C)c2)cc1 | 91 | 93.1 | 98.1 | 102 | 90 | 101 | 99 | 113 | 104 | 104 | 103 | 100 | 98.1 | 102 | 99.2 | 102 | 102 | 107 | 98.4 | 99.7 | > 10 | > 10 | > 10 | > 10 | 0 | 0 | 0 | 0 |  |  |  |  |  |  | 
2 | CSc1nc(NC2CCCC2)c([N+](=O)[O-])c(NC2CCCC2)n1 | 99 | 97 | 102 | 93.7 | 95.7 |  |  |  |  |  | 102 | 103 | 98.9 | 106 | 97.2 | 110 | 98.3 | 107 | 96.4 | 97 | > 10 |  | > 10 | > 10 | 0 |  | 0 | 0 | 94.6 | 94.2 | 106 | 96.9 | 90.1 | > 10 | 0
3 | Cc1nc2c(OCc3ccccc3)cccn2c1CC#N | 97.9 | 91.1 | 107 | 100 | 93.6 | 106 | 107 | 95.9 | 106 | 97.5 | 98 | 102 | 100 | 95.3 | 98.2 | 92.4 | 93.3 | 95.8 | 95.1 | 103 | > 10 | > 10 | > 10 | > 10 | 0 | 0 | 0 | 0 |  |  |  |  |  |  | 
4 | Cn1c(N2CCCCS2(=O)=O)nc(C(=O)NCc2ccc(F)cc2)c(O)c1=O | 85.9 | 88.6 | 88.9 | 92.7 | 81.1 | 103 | 96.9 | 105 | 106 | 46.9 | 94.3 | 100 | 94.5 | 93.7 | 54.9 | 103 | 96.6 | 100 | 102 | 85.4 | > 10 | 3.68 |  | > 10 | 0 | 2.4 | 3.4 | 0.1 | 98.4 | 89.8 | 95.6 | 102 | 97.4 | > 10 | 0
5 | O=C(O)c1ccc(S(=O)(=O)N(Cc2ccc(OC(F)(F)F)cc2)c2ncc(C(F)(F)F)cc2Cl)cc1 | 96.7 | 92.3 | 90.6 | 96.5 | 104 | 104 | 108 | 95.3 | 99.8 | 95.6 | 99.4 | 95.1 | 97.3 | 96.2 | 97.2 | 104 | 95.9 | 99.3 | 96.5 | 88.9 | > 10 | > 10 | > 10 | > 10 | 0 | 0 | 0 | 0.1 |  |  |  |  |  |  | 
6 | OCc1ccc(CO)o1 [2,5-furandimethanol] | 89.2 | 100 | 84.4 | 95.1 | 103 | 98.6 | 97.3 | 108 | 106 | 100 | 95.4 | 104 | 96.6 | 98.5 | 99 | 97.1 | 94.3 | 88.2 | 94.4 | 107 | > 10 | > 10 | > 10 | > 10 | 0 | 0 | 0 | 0 |  |  |  |  |  |  | 
7 | CO/N=C(\C(=O)N[C@@H]1C(=O)N2C(C(=O)O)=C(COC(N)=O)CS[C@H]12)c1ccco1 [CEFUROXIME SODIUM] | 106 | 90.6 | 98.6 | 107 | 99.4 | 97.7 | 109 | 95.4 | 97.8 | 103 | 97.3 | 95 | 96.8 | 98.7 | 103 | 101 | 95.6 | 97.6 | 95.1 | 110 | > 10 | > 10 | > 10 | > 10 | 0 | 0 | 0 | 0 |  |  |  |  |  |  | 
8 | O=C(NC(NC(=S)Nc1ccc(F)c([N+](=O)[O-])c1)C(Cl)(Cl)Cl)C(c1ccccc1)c1ccccc1 (stereo not given) [CGK-733] | 99.2 | 106 | 93.9 | 90.3 | 10.7 | 95.8 | 94.2 | 104 | 96.7 | 7.9 | 94.4 | 103 | 96.4 | 95.9 | 27.4 | 98.8 | 100 | 101 | 97.8 | 20 | 2.26 | 2.91 | 2.72 | 2.96 | 6.6 | 5.6 | 4.6 | 4.7 | 97.8 | 103 | 96.6 | 104 | 52.8 |  | 2.2
9 | C#C[C@]1(O)CC[C@H]2[C@@H]3CCc4cc(O)ccc4[C@H]3CC[C@@]21C [ETHINYL ESTRADIOL] | 97.2 | 102 | 99.5 | 99.4 | 85.7 | 97.3 | 98 | 99.8 | 90.8 | 65.7 | 97.7 | 105 | 98.8 | 102 | 92.9 | 97.7 | 98.1 | 94.2 | 92.9 | 102 | > 10 |  | > 10 | > 10 | 0.2 | 3 | 0 | 0 | 100 | 100 | 88.4 | 94.3 | 96.4 | > 10 | 0
10 | COc1ccc(-n2c(C)c([N+](=O)[O-])c3ccc(O)cc32)cc1 [ID-8] | 98.3 | 111 | 91 | 92.2 | 94.5 | 99.3 | 102 | 97.4 | 106 | 93.6 |  |  |  |  |  | 96.3 | 103 | 94.2 | 94.5 | 92.1 | > 10 | > 10 |  | > 10 | 0 | 0 |  | 0 | 99.7 | 97.6 | 91.1 | 79.9 | 88.4 | > 10 | 2.6
11 | Cc1c[nH]c2ncnc(N3CCC(CN)(C(=O)Nc4cccc(OC(=O)N(C)C)c4)CC3)c12 [LX7101] | 88.3 | 97.8 | 98.9 | 96 | 82.4 | 99.8 | 99.2 | 101 | 102 | 86.4 | 98 | 97.4 | 98.5 | 94 | 70.9 | 93.2 | 100 | 92.4 | 102 | 112 | > 10 | > 10 |  | > 10 | 0.9 | 0.1 | 2.2 | 0 | 82.4 | 99.4 | 110 | 125 | 114 | > 10 | 0
12 | O=C(CN1CCN(C(=O)c2ccco2)CC1)Nc1cc(C(F)(F)F)ccc1Cl [ML348] | 96.3 | 89 | 97 | 96.1 | 91.1 | 96.9 | 98 | 93.1 | 106 | 104 |  |  |  |  |  | 98.4 | 98.8 | 94 | 98.3 | 94.6 | > 10 | > 10 |  | > 10 | 0 | 0 |  | 0 | 118 | 95.7 | 102 | 104 | 95.5 | > 10 | 0
